# Patent US20230017045A1, “PYRIDINE AND PYRIMIDINE CARBOXYLATE HERBICIDES AND METHODS OF USE THEREOF” (Dow AgroSciences LLC, priority 2017, published 2023)
# Test system: test plant species
# Test: Post-emergent herbicidal activity test (greenhouse, foliar spray, visual growth reduction)
# Type: in vivo
# Conditions: post-emergence, 336 h, ALOMY: blackgrass (Alopecurus myosuroides), 140 g ai/ha, 14 days after application, read-out: Visual Growth Reduction (%) 14 Days After Application, ALOMY
# Outline: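 Greenhouse plants at first–second true leaf stage sprayed overhead at 187 L/ha with compound in acetone/water/isopropanol/DMSO/crop oil/X-77 carrier; controls received solvent blank. Injury rated visually after 14 d on a 0–100% scale versus untreated and control plants, converted to growth reduction.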
row,SMILES,pest or weed control at 140 g/ha
1,"COC(=O)c1nc(-c2ccc(Cl)c(OC)c2F)ncc1Cl [F115, methyl 5-chloro-2-(4-chloro-2-fluoro-3-methoxyphenyl)pyrimidine-4-carboxylate]",0 to 29%
2,"O=C(O)c1nc(-c2ncc(Cl)c(C(F)F)c2Cl)ccc1Cl [F193, 3′,5,5′-Trichloro-4′-(difluoromethyl)-[2,2′-bipyridine]-6-carboxylic acid]",0 to 29%
3,"COC(=O)c1nc(-c2ccc(C(F)(F)C(N)=O)cc2Cl)ccc1Cl [F176, Methyl 6-(4-(2-amino-1,1-difluoro-2-oxoethyl)-2-chlorophenyl)-3-chloropicolinate]",0 to 29%

# Same assay, conditions: post-emergence, 336 h, AMARE: redroot pigweed (Amaranthus retroflexus), 140 g ai/ha, 14 days after application, read-out: Visual Growth Reduction (%) 14 Days After Application, AMARE
row,SMILES,pest or weed control at 140 g/ha
1,"COC(=O)c1nc(-c2ccc(Cl)c(OC)c2F)ncc1Cl [F115, methyl 5-chloro-2-(4-chloro-2-fluoro-3-methoxyphenyl)pyrimidine-4-carboxylate]",0 to 29%
2,"O=C(O)c1nc(-c2ncc(Cl)c(C(F)F)c2Cl)ccc1Cl [F193, 3′,5,5′-Trichloro-4′-(difluoromethyl)-[2,2′-bipyridine]-6-carboxylic acid]",95 to 100%
3,"COC(=O)c1nc(-c2ccc(C(F)(F)C(N)=O)cc2Cl)ccc1Cl [F176, Methyl 6-(4-(2-amino-1,1-difluoro-2-oxoethyl)-2-chlorophenyl)-3-chloropicolinate]",0 to 29%

# Same assay, conditions: post-emergence, 336 h, AVEFA: wild oat (Avena fatua), 140 g ai/ha, 14 days after application, read-out: Visual Growth Reduction (%) 14 Days After Application, AVEFA
row,SMILES,pest or weed control at 140 g/ha
1,"COC(=O)c1nc(-c2ccc(Cl)c(OC)c2F)ncc1Cl [F115, methyl 5-chloro-2-(4-chloro-2-fluoro-3-methoxyphenyl)pyrimidine-4-carboxylate]",0 to 29%
2,"O=C(O)c1nc(-c2ncc(Cl)c(C(F)F)c2Cl)ccc1Cl [F193, 3′,5,5′-Trichloro-4′-(difluoromethyl)-[2,2′-bipyridine]-6-carboxylic acid]",30 to 44%
3,"COC(=O)c1nc(-c2ccc(C(F)(F)C(N)=O)cc2Cl)ccc1Cl [F176, Methyl 6-(4-(2-amino-1,1-difluoro-2-oxoethyl)-2-chlorophenyl)-3-chloropicolinate]",0 to 29%

# Same assay, conditions: post-emergence, 336 h, CHEAL: lambsquarters (Chenopodium album), 140 g ai/ha, 14 days after application, read-out: Visual Growth Reduction (%) 14 Days After Application, CHEAL
row,SMILES,pest or weed control at 140 g/ha
1,"COC(=O)c1nc(-c2ccc(Cl)c(OC)c2F)ncc1Cl [F115, methyl 5-chloro-2-(4-chloro-2-fluoro-3-methoxyphenyl)pyrimidine-4-carboxylate]",0 to 29%
2,"O=C(O)c1nc(-c2ncc(Cl)c(C(F)F)c2Cl)ccc1Cl [F193, 3′,5,5′-Trichloro-4′-(difluoromethyl)-[2,2′-bipyridine]-6-carboxylic acid]",85 to 94%
3,"COC(=O)c1nc(-c2ccc(C(F)(F)C(N)=O)cc2Cl)ccc1Cl [F176, Methyl 6-(4-(2-amino-1,1-difluoro-2-oxoethyl)-2-chlorophenyl)-3-chloropicolinate]",0 to 29%

# Same assay, conditions: post-emergence, 336 h, CIRAR: canada thistle (Cirsium arvense), 140 g ai/ha, 14 days after application, read-out: Visual Growth Reduction (%) 14 Days After Application, CIRAR
row,SMILES,pest or weed control at 140 g/ha
1,"COC(=O)c1nc(-c2ccc(Cl)c(OC)c2F)ncc1Cl [F115, methyl 5-chloro-2-(4-chloro-2-fluoro-3-methoxyphenyl)pyrimidine-4-carboxylate]",60 to 74%
2,"O=C(O)c1nc(-c2ncc(Cl)c(C(F)F)c2Cl)ccc1Cl [F193, 3′,5,5′-Trichloro-4′-(difluoromethyl)-[2,2′-bipyridine]-6-carboxylic acid]",0 to 29%
3,"COC(=O)c1nc(-c2ccc(C(F)(F)C(N)=O)cc2Cl)ccc1Cl [F176, Methyl 6-(4-(2-amino-1,1-difluoro-2-oxoethyl)-2-chlorophenyl)-3-chloropicolinate]",0 to 29%

# Same assay, conditions: post-emergence, 336 h, CYPES: yellow nutsedge (Cyperus esculentus), 140 g ai/ha, 14 days after application, read-out: Visual Growth Reduction (%) 14 Days After Application, CYPES
row,SMILES,pest or weed control at 140 g/ha
1,"COC(=O)c1nc(-c2ccc(Cl)c(OC)c2F)ncc1Cl [F115, methyl 5-chloro-2-(4-chloro-2-fluoro-3-methoxyphenyl)pyrimidine-4-carboxylate]",0 to 29%
2,"O=C(O)c1nc(-c2ncc(Cl)c(C(F)F)c2Cl)ccc1Cl [F193, 3′,5,5′-Trichloro-4′-(difluoromethyl)-[2,2′-bipyridine]-6-carboxylic acid]",0 to 29%
3,"COC(=O)c1nc(-c2ccc(C(F)(F)C(N)=O)cc2Cl)ccc1Cl [F176, Methyl 6-(4-(2-amino-1,1-difluoro-2-oxoethyl)-2-chlorophenyl)-3-chloropicolinate]",0 to 29%

# Same assay, conditions: post-emergence, 336 h, DIGSA: crabgrass (Digitaria sanguinalis), 140 g ai/ha, 14 days after application, read-out: Visual Growth Reduction (%) 14 Days After Application, DIGSA
row,SMILES,pest or weed control at 140 g/ha
1,"COC(=O)c1nc(-c2ccc(Cl)c(OC)c2F)ncc1Cl [F115, methyl 5-chloro-2-(4-chloro-2-fluoro-3-methoxyphenyl)pyrimidine-4-carboxylate]",0 to 29%
2,"O=C(O)c1nc(-c2ncc(Cl)c(C(F)F)c2Cl)ccc1Cl [F193, 3′,5,5′-Trichloro-4′-(difluoromethyl)-[2,2′-bipyridine]-6-carboxylic acid]",85 to 94%
3,"COC(=O)c1nc(-c2ccc(C(F)(F)C(N)=O)cc2Cl)ccc1Cl [F176, Methyl 6-(4-(2-amino-1,1-difluoro-2-oxoethyl)-2-chlorophenyl)-3-chloropicolinate]",0 to 29%

# Same assay, conditions: post-emergence, 336 h, ECHCG: barnyardgrass (Echinochloa crus-galli), 140 g ai/ha, 14 days after application, read-out: Visual Growth Reduction (%) 14 Days After Application, ECHCG
row,SMILES,pest or weed control at 140 g/ha
1,"COC(=O)c1nc(-c2ccc(Cl)c(OC)c2F)ncc1Cl [F115, methyl 5-chloro-2-(4-chloro-2-fluoro-3-methoxyphenyl)pyrimidine-4-carboxylate]",0 to 29%
2,"O=C(O)c1nc(-c2ncc(Cl)c(C(F)F)c2Cl)ccc1Cl [F193, 3′,5,5′-Trichloro-4′-(difluoromethyl)-[2,2′-bipyridine]-6-carboxylic acid]",85 to 94%
3,"COC(=O)c1nc(-c2ccc(C(F)(F)C(N)=O)cc2Cl)ccc1Cl [F176, Methyl 6-(4-(2-amino-1,1-difluoro-2-oxoethyl)-2-chlorophenyl)-3-chloropicolinate]",0 to 29%

# Same assay, conditions: post-emergence, 336 h, IPOHE: ivy-leaf morning glory (Ipomoea hederacea), 140 g ai/ha, 14 days after application, read-out: Visual Growth Reduction (%) 14 Days After Application, IPOHE
row,SMILES,pest or weed control at 140 g/ha
1,"COC(=O)c1nc(-c2ccc(Cl)c(OC)c2F)ncc1Cl [F115, methyl 5-chloro-2-(4-chloro-2-fluoro-3-methoxyphenyl)pyrimidine-4-carboxylate]",30 to 44%
2,"O=C(O)c1nc(-c2ncc(Cl)c(C(F)F)c2Cl)ccc1Cl [F193, 3′,5,5′-Trichloro-4′-(difluoromethyl)-[2,2′-bipyridine]-6-carboxylic acid]",95 to 100%
3,"COC(=O)c1nc(-c2ccc(C(F)(F)C(N)=O)cc2Cl)ccc1Cl [F176, Methyl 6-(4-(2-amino-1,1-difluoro-2-oxoethyl)-2-chlorophenyl)-3-chloropicolinate]",0 to 29%

# Same assay, conditions: post-emergence, 336 h, KCHSC: kochia (Bassia scoparia), 140 g ai/ha, 14 days after application, read-out: Visual Growth Reduction (%) 14 Days After Application, KCHSC
row,SMILES,pest or weed control at 140 g/ha
1,"O=C(O)c1nc(-c2ncc(Cl)c(C(F)F)c2Cl)ccc1Cl [F193, 3′,5,5′-Trichloro-4′-(difluoromethyl)-[2,2′-bipyridine]-6-carboxylic acid]",0 to 29%
2,"COC(=O)c1nc(-c2ccc(C(F)(F)C(N)=O)cc2Cl)ccc1Cl [F176, Methyl 6-(4-(2-amino-1,1-difluoro-2-oxoethyl)-2-chlorophenyl)-3-chloropicolinate]",0 to 29%

# Same assay, conditions: post-emergence, 336 h, ORYSA: rice (Oryza sativa), 140 g ai/ha, 14 days after application, read-out: Visual Growth Reduction (%) 14 Days After Application, ORYSA
row,SMILES,pest or weed control at 140 g/ha
1,"COC(=O)c1nc(-c2ccc(Cl)c(OC)c2F)ncc1Cl [F115, methyl 5-chloro-2-(4-chloro-2-fluoro-3-methoxyphenyl)pyrimidine-4-carboxylate]",0 to 29%
2,"O=C(O)c1nc(-c2ncc(Cl)c(C(F)F)c2Cl)ccc1Cl [F193, 3′,5,5′-Trichloro-4′-(difluoromethyl)-[2,2′-bipyridine]-6-carboxylic acid]",0 to 29%
3,"COC(=O)c1nc(-c2ccc(C(F)(F)C(N)=O)cc2Cl)ccc1Cl [F176, Methyl 6-(4-(2-amino-1,1-difluoro-2-oxoethyl)-2-chlorophenyl)-3-chloropicolinate]",0 to 29%

# Same assay, conditions: post-emergence, 336 h, SETFA: giant foxtail (Setaria faberi), 140 g ai/ha, 14 days after application, read-out: Visual Growth Reduction (%) 14 Days After Application, SETFA
row,SMILES,pest or weed control at 140 g/ha
1,"COC(=O)c1nc(-c2ccc(Cl)c(OC)c2F)ncc1Cl [F115, methyl 5-chloro-2-(4-chloro-2-fluoro-3-methoxyphenyl)pyrimidine-4-carboxylate]",0 to 29%
2,"O=C(O)c1nc(-c2ncc(Cl)c(C(F)F)c2Cl)ccc1Cl [F193, 3′,5,5′-Trichloro-4′-(difluoromethyl)-[2,2′-bipyridine]-6-carboxylic acid]",75 to 84%
3,"COC(=O)c1nc(-c2ccc(C(F)(F)C(N)=O)cc2Cl)ccc1Cl [F176, Methyl 6-(4-(2-amino-1,1-difluoro-2-oxoethyl)-2-chlorophenyl)-3-chloropicolinate]",0 to 29%

# Same assay, conditions: post-emergence, 336 h, SORVU: grain sorghum (Sorghum vulgare), 140 g ai/ha, 14 days after application, read-out: Visual Growth Reduction (%) 14 Days After Application, SORVU
row,SMILES,pest or weed control at 140 g/ha
1,"COC(=O)c1nc(-c2ccc(Cl)c(OC)c2F)ncc1Cl [F115, methyl 5-chloro-2-(4-chloro-2-fluoro-3-methoxyphenyl)pyrimidine-4-carboxylate]",0 to 29%
2,"O=C(O)c1nc(-c2ncc(Cl)c(C(F)F)c2Cl)ccc1Cl [F193, 3′,5,5′-Trichloro-4′-(difluoromethyl)-[2,2′-bipyridine]-6-carboxylic acid]",95 to 100%
3,"COC(=O)c1nc(-c2ccc(C(F)(F)C(N)=O)cc2Cl)ccc1Cl [F176, Methyl 6-(4-(2-amino-1,1-difluoro-2-oxoethyl)-2-chlorophenyl)-3-chloropicolinate]",0 to 29%

# Same assay, conditions: post-emergence, 336 h, STEME: common chickweed (Stellaria media), 140 g ai/ha, 14 days after application, read-out: Visual Growth Reduction (%) 14 Days After Application, STEME
row,SMILES,pest or weed control at 140 g/ha
1,"COC(=O)c1nc(-c2ccc(Cl)c(OC)c2F)ncc1Cl [F115, methyl 5-chloro-2-(4-chloro-2-fluoro-3-methoxyphenyl)pyrimidine-4-carboxylate]",0 to 29%
2,"O=C(O)c1nc(-c2ncc(Cl)c(C(F)F)c2Cl)ccc1Cl [F193, 3′,5,5′-Trichloro-4′-(difluoromethyl)-[2,2′-bipyridine]-6-carboxylic acid]",0 to 29%
3,"COC(=O)c1nc(-c2ccc(C(F)(F)C(N)=O)cc2Cl)ccc1Cl [F176, Methyl 6-(4-(2-amino-1,1-difluoro-2-oxoethyl)-2-chlorophenyl)-3-chloropicolinate]",0 to 29%

# Same assay, conditions: post-emergence, 336 h, TRZAS: wheat, spring (Triticum aestivum), 140 g ai/ha, 14 days after application, read-out: Visual Growth Reduction (%) 14 Days After Application, TRZAS
row,SMILES,pest or weed control at 140 g/ha
1,"COC(=O)c1nc(-c2ccc(Cl)c(OC)c2F)ncc1Cl [F115, methyl 5-chloro-2-(4-chloro-2-fluoro-3-methoxyphenyl)pyrimidine-4-carboxylate]",0 to 29%
2,"O=C(O)c1nc(-c2ncc(Cl)c(C(F)F)c2Cl)ccc1Cl [F193, 3′,5,5′-Trichloro-4′-(difluoromethyl)-[2,2′-bipyridine]-6-carboxylic acid]",0 to 29%
3,"COC(=O)c1nc(-c2ccc(C(F)(F)C(N)=O)cc2Cl)ccc1Cl [F176, Methyl 6-(4-(2-amino-1,1-difluoro-2-oxoethyl)-2-chlorophenyl)-3-chloropicolinate]",0 to 29%
